Experimental data: patent US10981916B2, “Substituted pyrazolopyrimidinone compounds as PDE2 inhibitors” (DART NEUROSCIENCE, LLC, priority 2016, dated 2021)

These compounds were tested against PDE2A (Homo sapiens (Human), UniProt O00408) (assay: IMAP TR-FRET PDE2A enzymatic assay). Conditions: FLAG-tagged PDE2A1 (amino acids 2-941), 200 nM FAM-cAMP substrate, 11-point half-log dose-response.
Assay type: biochemical
Description: An IMAP TR-FRET-based phosphodiesterase assay was developed using the PDE2A isoform. IMAP technology is based on high-affinity binding of phosphate by immobilized metal (MIII) coordination complexes on nanoparticles. The IMAP “binding reagent” recognizes phosphate groups on AMP or GMP generated from cAMP or cGMP in a PDE reaction. Cyclic nucleotides that carry a phosphodiester bond and not a free phosphate are not recognized by the binding reagent. The time resolved fluorescence resonance energy transfer (TR-FRET) is afforded by a Terbium (Tb)-Donor pre-bound to the nanoparticles. FRET occurs when the fluorescent-labeled AMP or GMP product of a PDE reaction binds and comes into close proximity to the Tb-Donor complex. Due to the long lifetime of Tb fluorescence, detection can be run in time-resolved mode to reduce or eliminate interference from auto-fluorescent compounds.
The IMAP TR-FRET PDE2A assay was performed in 1536-well white plates. A total of 250 pg per well of FLAG-tagged PDE2A 1 (amino acids 2-941) was dispensed in 2.5 μL IMAP assay buffer consisting of 10 mM Tris pH 7.2, 10 mM MgCl2, 1 mM DTT, and 0.1% fatty acid free BSA. 30 nL of compound was then added from 1 mM stocks in DMSO using a Kalypsys Pintool. Plates were incubated for 5 min at room temperature before dispensing 1.5 μL of 533 nM FAM-cAMP substrate for a final concentration of 200 nM. Following a brief centrifugation, plates were incubated for 30 min at room temperature. The assay was terminated by adding 5 μL IMAP binding reagent Tb complex to each well which was prepared according to manufacturer's recommendations (Molecular Devices). Plates were incubated an additional 120 minutes at room temperature and read on a Viewlux plate reader. All compounds were solvated at a concentration of 10 mM in DMSO and tested in 11-point half-log dose-response. Curve fitting and IC50 values were determined using a standard four parameter fit.

Chain of PDE2A (O00408 2-941): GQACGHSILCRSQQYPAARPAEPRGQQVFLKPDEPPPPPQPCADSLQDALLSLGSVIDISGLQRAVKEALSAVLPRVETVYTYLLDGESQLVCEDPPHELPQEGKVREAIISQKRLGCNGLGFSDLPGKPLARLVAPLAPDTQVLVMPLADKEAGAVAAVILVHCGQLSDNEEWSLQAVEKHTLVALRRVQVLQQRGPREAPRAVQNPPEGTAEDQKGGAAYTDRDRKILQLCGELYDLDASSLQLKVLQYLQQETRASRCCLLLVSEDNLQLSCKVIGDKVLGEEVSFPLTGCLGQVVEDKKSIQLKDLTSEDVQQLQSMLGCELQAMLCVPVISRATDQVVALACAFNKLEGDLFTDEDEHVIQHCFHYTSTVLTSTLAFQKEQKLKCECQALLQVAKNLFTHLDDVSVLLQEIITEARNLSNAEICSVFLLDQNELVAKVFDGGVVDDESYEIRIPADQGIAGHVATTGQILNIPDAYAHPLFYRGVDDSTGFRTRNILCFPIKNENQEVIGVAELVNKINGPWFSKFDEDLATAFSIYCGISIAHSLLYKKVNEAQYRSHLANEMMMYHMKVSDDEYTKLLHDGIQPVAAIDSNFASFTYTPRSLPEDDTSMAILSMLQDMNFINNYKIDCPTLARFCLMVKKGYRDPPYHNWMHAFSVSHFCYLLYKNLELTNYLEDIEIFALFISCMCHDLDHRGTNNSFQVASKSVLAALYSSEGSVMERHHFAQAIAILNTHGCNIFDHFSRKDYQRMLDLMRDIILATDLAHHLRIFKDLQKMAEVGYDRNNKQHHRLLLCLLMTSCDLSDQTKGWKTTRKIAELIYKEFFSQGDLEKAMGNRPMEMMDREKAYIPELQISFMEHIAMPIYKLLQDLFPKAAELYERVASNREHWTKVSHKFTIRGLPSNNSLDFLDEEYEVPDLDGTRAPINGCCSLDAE

Structure (SMILES) | PDE2 (pIC50)
CCC(c1ccc(C(F)(F)F)nc1)n1nc(C2CC2)c2c(=O)[nH]c(Cc3ccc(OC)cn3)nc21 (stereo not shown) [Example 1, 3-cyclopropyl-6-[(5-methoxypyridin-2-yl)methyl]-1-{1-[6-(trifluoromethyl)pyridin-3-yl]propyl}-1H,4H,5H-pyrazolo[3,4-d]pyrimidin-4-one] | >7
COc1ccc(Cc2nc3c(c(C4CC4)nn3C(C)c3ccc(C(F)(F)F)nc3)c(=O)[nH]2)nc1 (stereo not shown) [Example 2, 3-cyclopropyl-6-[(5-methoxypyridin-2-yl)methyl]-1-{1-[6-(trifluoromethyl)pyridin-3-yl]ethyl}-1H,4H,5H-pyrazolo[3,4-d]pyrimidin-4-one] | >7
COc1ccc(Cc2nc3c(c(C4CC4)nn3[C@@H](C)c3ccc(C(F)(F)F)nc3)c(=O)[nH]2)nc1 [Example 5, 3-cyclopropyl-6-[(5-methoxypyridin-2-yl)methyl]-1-[(1S)-1-[6-(trifluoromethyl)pyridin-3-yl]ethyl]-1H,4H,5H-pyrazolo[3,4-d]pyrimidin-4-one] | >7
CCC(c1ccc(C(F)(F)F)nc1)n1nc(C2CC2)c2c(=O)[nH]c(Cc3ccc(F)cn3)nc21 (stereo not shown) [Example 8, 3-cyclopropyl-6-[(5-fluoropyridin-2-yl)methyl]-1-{1-[6-(trifluoromethyl)pyridin-3-yl]propyl}-1H,4H,5H-pyrazolo[3,4-d]pyrimidin-4-one] | >7
CCC(c1ccc(C(F)(F)F)cn1)n1nc(C2CC2)c2c(=O)[nH]c(C)nc21 (stereo not shown) [Example 9, 3-cyclopropyl-6-methyl-1-{1-[5-(trifluoromethyl)pyridin-2-yl]propyl}-1H,4H,5H-pyrazolo[3,4-d]pyrimidin-4-one] | >7
Cc1nc2c(c(C3CC3)nn2C(C)c2ccc(C(F)(F)F)cc2)c(=O)[nH]1 (stereo not shown) [Example 10, 3-cyclopropyl-6-methyl-1-{1-[4-(trifluoromethyl)phenyl]ethyl}-1H,4H,5H-pyrazolo[3,4-d]pyrimidin-4-one] | >7
Cc1nc2c(c(C3CC3)nn2C(C)c2ccc(C(F)(F)F)cn2)c(=O)[nH]1 (stereo not shown) [Example 11, 3-cyclopropyl-6-methyl-1-{1-[5-(trifluoromethyl)pyridin-2-yl]ethyl}-1H,4H,5H-pyrazolo[3,4-d]pyrimidin-4-one] | >7
Cc1nc2c(c(C3CC3)nn2C(C)c2ccc(C(F)(F)F)nc2)c(=O)[nH]1 (stereo not shown) [Example 12, 3-cyclopropyl-6-methyl-1-{1-[6-(trifluoromethyl)pyridin-3-yl]ethyl}-1H,4H,5H-pyrazolo[3,4-d]pyrimidin-4-one] | >7
C[C@H](c1ccc(C(F)(F)F)nc1)n1nc(C2CC2)c2c(=O)[nH]c(Cc3ccc(F)cn3)nc21 [Example 16, 3-cyclopropyl-6-[(5-fluoropyridin-2-yl)methyl]-1-[(1R)-1-[6-(trifluoromethyl)pyridin-3-yl]ethyl]-1H,4H,5H-pyrazolo[3,4-d]pyrimidin-4-one] | <5
CC[C@@H](c1ccc(C(F)(F)F)nc1)n1nc(C2CC2)c2c(=O)[nH]c(Cc3ccc(OC)cn3)nc21 [Example 17, 3-cyclopropyl-6-[(5-methoxypyridin-2-yl)methyl]-1-[(1S)-1-[6-(trifluoromethyl)pyridin-3-yl]propyl]-1H,4H,5H-pyrazolo[3,4-d]pyrimidin-4-one] | >7
CC[C@H](c1ccc(C(F)(F)F)nc1)n1nc(C2CC2)c2c(=O)[nH]c(Cc3ccc(OC)cn3)nc21 [Example 18, 3-cyclopropyl-6-[(5-methoxypyridin-2-yl)methyl]-1-[(1R)-1-[6-(trifluoromethyl)pyridin-3-yl]propyl]-1H,4H,5H-pyrazolo[3,4-d]pyrimidin-4-one] | <5
CC[C@@H](c1ccc(C(F)(F)F)nc1)n1nc(C2CC2)c2c(=O)[nH]c(C)nc21 [Example 19, 3-cyclopropyl-6-methyl-1-[(1S)-1-[6-(trifluoromethyl)pyridin-3-yl]propyl]-1H,4H,5H-pyrazolo[3,4-d]pyrimidin-4-one] | >7
CC[C@@H](c1ccc(C(F)(F)F)nc1)n1nc(C2CC2)c2c(=O)[nH]c(Cc3ccc(F)cn3)nc21 [Example 21, 3-cyclopropyl-6-[(5-fluoropyridin-2-yl)methyl]-1-[(1S)-1-[6-(trifluoromethyl)pyridin-3-yl]propyl]-1H,4H,5H-pyrazolo[3,4-d]pyrimidin-4-one] | >7
CC[C@@H](c1ccc(C(F)(F)F)cn1)n1nc(C2CC2)c2c(=O)[nH]c(C)nc21 [Example 23, 3-cyclopropyl-6-methyl-1-[(1S)-1-[5-(trifluoromethyl)pyridin-2-yl]propyl]-1H,4H,5H-pyrazolo[3,4-d]pyrimidin-4-one] | >7
Cc1nc2c(c(C3CC3)nn2[C@@H](C)c2ccc(C(F)(F)F)cn2)c(=O)[nH]1 [Example 25, 3-cyclopropyl-6-methyl-1-[(1S)-1-[5-(trifluoromethyl)pyridin-2-yl]ethyl]-1H,4H,5H-pyrazolo[3,4-d]pyrimidin-4-one] | >7

Same assay, conditions: FLAG-tagged PDE2A1 (amino acids 2-941), 200 nM FAM-cAMP substrate, 11-point half-log dose-response; read-out: PDE2 (pIC50) (converted)

Structure (SMILES) | IC50 [nM]
CCC(c1ccc(C(F)(F)F)nc1)n1nc(C2CC2)c2c(=O)[nH]c(C)nc21 (stereo not shown) [Example 3, 3-cyclopropyl-6-methyl-1-{1-[6-(trifluoromethyl)pyridin-3-yl]propyl}-1H,4H,5H-pyrazolo[3,4-d]pyrimidin-4-one] | 100 to 1000
CCC(c1ccc(C(F)(F)F)nc1)n1nc(C2CCC2)c2c(=O)[nH]c(C)nc21 (stereo not shown) [Example 4, 3-cyclobutyl-6-methyl-1-{1-[6-(trifluoromethyl)pyridin-3-yl]propyl}-1H,4H,5H-pyrazolo[3,4-d]pyrimidin-4-one] | > 10000
COc1ccc(Cc2nc3c(c(C4CC4)nn3[C@H](C)c3ccc(C(F)(F)F)nc3)c(=O)[nH]2)nc1 [Example 6, 3-cyclopropyl-6-[(5-methoxypyridin-2-yl)methyl]-1-[(1R)-1-[6-(trifluoromethyl)pyridin-3-yl]ethyl]-1H,4H,5H-pyrazolo[3,4-d]pyrimidin-4-one] | 100 to 1000
CC(c1ccc(C(F)(F)F)nc1)n1nc(C2CC2)c2c(=O)[nH]c(Cc3ccc(F)cn3)nc21 (stereo not shown) [Example 7, 3-cyclopropyl-6-[(5-fluoropyridin-2-yl)methyl]-1-{1-[6-(trifluoromethyl)pyridin-3-yl]ethyl}-1H,4H,5H-pyrazolo[3,4-d]pyrimidin-4-one] | 100 to 1000
Cc1nc2c(c(C3CC3)nn2[C@H](C)c2ccc(C(F)(F)F)nc2)c(=O)[nH]1 [Example 14, 3-cyclopropyl-6-methyl-1-[(1R)-1-[6-(trifluoromethyl)pyridin-3-yl]ethyl]-1H,4H,5H-pyrazolo[3,4-d]pyrimidin-4-one] | 1000 to 10000
C[C@@H](c1ccc(C(F)(F)F)nc1)n1nc(C2CC2)c2c(=O)[nH]c(Cc3ccc(F)cn3)nc21 [Example 15, 3-cyclopropyl-6-[(5-fluoropyridin-2-yl)methyl]-1-[(1S)-1-[6-(trifluoromethyl)pyridin-3-yl]ethyl]-1H,4H,5H-pyrazolo[3,4-d]pyrimidin-4-one] | 100 to 1000
CC[C@H](c1ccc(C(F)(F)F)nc1)n1nc(C2CC2)c2c(=O)[nH]c(C)nc21 [Example 20, 3-cyclopropyl-6-methyl-1-[(1R)-1-[6-(trifluoromethyl)pyridin-3-yl]propyl]-1H,4H,5H-pyrazolo[3,4-d]pyrimidin-4-one] | 1000 to 10000
CC[C@H](c1ccc(C(F)(F)F)nc1)n1nc(C2CC2)c2c(=O)[nH]c(Cc3ccc(F)cn3)nc21 [Example 22, 3-cyclopropyl-6-[(5-fluoropyridin-2-yl)methyl]-1-[(1R)-1-[6-(trifluoromethyl)pyridin-3-yl]propyl]-1H,4H,5H-pyrazolo[3,4-d]pyrimidin-4-one] | 1000 to 10000
CC[C@H](c1ccc(C(F)(F)F)cn1)n1nc(C2CC2)c2c(=O)[nH]c(C)nc21 [Example 24, 3-cyclopropyl-6-methyl-1-[(1R)-1-[5-(trifluoromethyl)pyridin-2-yl]propyl]-1H,4H,5H-pyrazolo[3,4-d]pyrimidin-4-one] | 1000 to 10000
Cc1nc2c(c(C3CC3)nn2[C@H](C)c2ccc(C(F)(F)F)cn2)c(=O)[nH]1 [Example 26, 3-cyclopropyl-6-methyl-1-[(1R)-1-[5-(trifluoromethyl)pyridin-2-yl]ethyl]-1H,4H,5H-pyrazolo[3,4-d]pyrimidin-4-one] | 1000 to 10000
